Several values for one entry are separate records, joined by “and”; a condition that tells them apart may be missing. Identical values can stand only once. Non-standard residues stand in square brackets, D forms with d. Residues, ends and D or L forms follow the SMILES beside them. Nva = CCC[C@H](N)C(=O)O
Assays:
[1] = system: PA induced HepG2 cells; test: Mitochondrial content assay (MitoTracker), PA induced HepG2; assay type: cell-based, human; conditions: HepG2, PA + 200 μM JT003; in words
Procedure: 60–70% confluent LX2 cells and PA induced HepG2 cells were washed with PBS twice and incubated with 100 nM MitoTracker Green FM (YeSan, China) at 37 °C for 30 min For fluorescence intensity assay, cells were harvested by using trypsin/EDTA (ThermoFisher Scientific, USA) and resuspended in PBS. The excitation and emission wavelengths were 490 and 516 nm, respectively, and the intensity values corrected for total protein level (mg ml^−1). For mitochondrial visualized assay, after incubated with MitoTracker Green FM, the adherent cells were washed with PBS and a single in-focus optical section was acquired with confocal microscopy (Olympus, Japan). The nucleus was stained with Hochest33342 (ThermoFisher Scientific, USA). For every section n = 50 cells, images were analyzed and quantified by ImageJ.

[2] = system: liver gene expression of CCl4 induced liver fibrosis mice; test: CCl4 mice: liver mRNA, quantitative RT-PCR; assay type: in vivo, mouse; parameters: key to BAX liver mRNA / BID liver mRNA / UCP2 liver mRNA / DGAT1 liver mRNA / GSTM1 liver mRNA / GPX1 liver mRNA / HO-1 liver mRNA / XBP1 liver mRNA / ATF4 liver mRNA / GRP78 liver mRNA / BIM liver mRNA: mRNA expression normalized to β-actin reference gene; conditions: for BCL2 liver mRNA, relative expression (Apotosis), Supplementary Figure 16 / FAS liver mRNA, relative expression (Apotosis), Supplementary Figure 16: CCl4 + JT003 mice
Procedure: Male mice liver fibrosis was induced by intraperitoneal injection of 20% CCl4 (Sigma, USA) diluted in corn oil (Aladdin, China) every 3 days for 6 weeks (n = 6; 5 ml kg^−1 body weight). Mice injected with equivalent volume of corn oil serves as control group (n = 6). Liver fibrosis mice treated with JT003 for 3 weeks were used to evaluated the pharmacological effects (n = 6; 500 μg kg^−1; daily intraperitoneal injection).
Liver total RNA was extracted by using Trizol reagent following the manufacture’s instruction (TransGen Biotech, China). The concentration of RNA was measured by Nanodrop 2000 (ThermoFisher Scientific, USA). cDNA was transcribed from 10ug total RNA with First Strand cDNA synthesis Super Mix (TransGen Biotech, China). The cDNA was diluted 1/50 and 1.0 uL were used as a template for qPCR. qPCR was performed with SYBR Green qPCR Super Mix (TransGen Biotech, China) in the Light Cycler 480 Real-Time PCR System (Roche, Swiss). Reference gene β-actin was used for data normalization. mRNA expression was analyzed with specific primers listed in Supplementary Table 2.

[3] = system: HFD induced NASH mice; test: HFD mice: fasting blood glucose, fasting insulin and adiponectin (ELISA); assay type: in vivo, mouse; conditions: JT003 500 μg kg−1 i.p. daily 4 weeks, in words
Procedure: The NASH model was conducted with feeding a HFD for 16 weeks combine with a MCD diet (Methionine/Choline Deficient Diet, Medicience, China) in the last 4 weeks. Mice administered a MCS diet (Methionine/Choline Sufficient Diet, Medicience, China) serves as control group. NAFLD or NASH mice treated with JT003 for 4 weeks were used to evaluate the pharmacological effects (n = 6; 500 μg kg^−1; daily intraperitoneal injection). Food and water were provided ad libitum. The body weight of mice was examined every 3 days. The diet was renewed every 7 days. JT003 was diluted in PBS.
Fasting blood glucose was measured using OneTouch UltraVue Blood Glucose Meter and test strips (Johnson&Johnson, USA) from tail nicks. After HFD fed for 14 weeks and JT003 treated for 2 weeks, oral glucose tolerance tests were performed on 8 h fasted mice. 0.5 g ml^−1 D-glucose solution (Sigma-Aldrich, USA) were oral injected to mice (2 g kg^−1 of bodyweight), blood glucose level was recorded at baseline, 15, 30, 60, 120 min
The levels of ALT, AST, TC and TG in serum were determined using certain commercial assay kits (Nanjing Jiancheng Bioengineering Institute, China). Fasting adiponectin and insulin were quantified in plasma samples using corresponding commercially available Elisa kits (Cloud-Clone Crop, USA).

[4] = target: T1, AdipoR1 (Homo sapiens, UniProt Q96A54); test: Competition binding assay vs globular adiponectin (western blot), AdipoR1 overexpression cells; conditions: JT003 4 h, then 50 μg ml−1 gAd155–161 4 h, in words
T1 construct: His; host or cells: HEK293
T1 sequence (Q96A54 1-375): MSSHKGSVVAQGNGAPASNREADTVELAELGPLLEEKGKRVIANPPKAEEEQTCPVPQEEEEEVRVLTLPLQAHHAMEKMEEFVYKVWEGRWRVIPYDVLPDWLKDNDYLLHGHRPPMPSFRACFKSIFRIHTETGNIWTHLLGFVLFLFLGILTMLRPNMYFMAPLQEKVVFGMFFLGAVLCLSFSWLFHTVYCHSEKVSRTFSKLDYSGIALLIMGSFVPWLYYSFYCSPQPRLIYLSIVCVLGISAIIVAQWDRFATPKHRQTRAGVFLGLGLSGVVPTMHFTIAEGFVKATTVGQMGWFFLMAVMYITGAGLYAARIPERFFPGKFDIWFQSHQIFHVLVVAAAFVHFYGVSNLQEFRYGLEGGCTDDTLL
Procedure: Different concentration of JT003 were incubated with AdipoR1 or AdipoR2 overexpression HEK293 cell line for 4 h. After that, 50 μg ml^−1 gAd155–161 were added for another 4 h incubation. The binding of gAd155–161 to the cells were measured via western blot assay.

[5] = CCl4 fibrosis mice, liver, JT003 500 μg kg−1, in words
[6] = CCl4 mice, liver, JT003 500 μg kg−1, in words
[7] = Figure 7d left, CCl4 + JT003 group, single replicates, n = 6
[8] = Figure 7d right, CCl4 + JT003 group, single replicates, n = 6

Compound: CCC[C@H](NC(=O)[C@@H]1CCCN1)C(=O)N[C@@H](CC(C)C)C(=O)N[C@@H](Cc1ccc(O)cc1)C(=O)N[C@@H](Cc1ccc(O)cc1)C(=O)N[C@@H](Cc1ccccc1)C(=O)N[C@@H](C)C(N)=O [JT003] (H-P[Nva]LYYFA-NH2)
- mitochondrial content / biogenesis in PA induced HepG2 [1]: mitochondrial biogenesis was improved
- BCL2 liver mRNA, relative expression (Apotosis), Supplementary Figure 16 ([2]; replicate 1): 19.1929
- FAS liver mRNA, relative expression (Apotosis), Supplementary Figure 16 ([2]; replicate 1): 0.7337
- BCL2 liver mRNA, relative expression (Apotosis), Supplementary Figure 16 ([2]; replicate 2): 9.563
- FAS liver mRNA, relative expression (Apotosis), Supplementary Figure 16 ([2]; replicate 2): 0.7492
- BCL2 liver mRNA, relative expression (Apotosis), Supplementary Figure 16 ([2]; replicate 3): 15.2158
- FAS liver mRNA, relative expression (Apotosis), Supplementary Figure 16 ([2]; replicate 3): 0.6522
- BCL2 liver mRNA, relative expression (Apotosis), Supplementary Figure 16 ([2]; replicate 4): 10.7592
- FAS liver mRNA, relative expression (Apotosis), Supplementary Figure 16 ([2]; replicate 4): 0.5898
- TGFβ, CTGF, IL-6, TNFα and IL-1β (HSCs activation) [2, 5]: all suppressed
- expression of genes related to ECM accumulation (TIMP1, MMP3 and MMP8) [2, 5]: decreased
- genes involved in ECM elimination (MMP2, MMP9 and MMP13) [2, 5]: notably upregulated
- ER-Stress related genes (XBP1, ATF4, GRP78 and BIM) ([2]; CCl4 induced fibrosis mice, liver, JT003 500 μg kg−1, in words): remarkably suppressed
- anti-apoptotic BCL2 (RT-PCR) [2, 6]: significantly improved
- apoptosis-related FAS (RT-PCR) [2, 6]: reduced
- ATF4 liver mRNA [2, 7]: 1.16 and 0.7959 and 1.086 (2×) and 0.9357 and 1.157
- BIM liver mRNA [2, 7]: 0.2472 and 0.8351 and 0.6258 and 0.6305 and 0.5305 and 0.5258
- GRP78 liver mRNA [2, 7]: 0.8253 and 1.201 and 1.072 (2×) and 0.9986 and 0.797
- XBP1 liver mRNA [2, 7]: 2.911 and 0.8961 and 1.2156 (2×) and 1.656 and 1.136
- DGAT1 liver mRNA ([2]; Figure 7d right, CCl4 + JT003 group, single replicates, 5 values): 0.8433 and 1.099 and 1.191 and 0.9141 and 2.738
- BAX liver mRNA [2, 8]: 1.955 and 0.8137 and 1.744 and 0.6724 and 1.0479 and 1.373
- BID liver mRNA [2, 8]: 1.296 and 0.8034 and 0.6436 and 0.8394 and 0.9828 and 0.9284
- GPX1 liver mRNA [2, 8]: 0.4793 and 0.5322 and 0.6634 and 0.7144 and 0.5138 and 0.7293
- GSTM1 liver mRNA [2, 8]: 0.3771 and 0.1875 and 0.195 and 1.014 and 0.3719 and 0.9044
- HO-1 liver mRNA [2, 8]: 1.179 and 1.19 and 1.314 and 1.134 and 1.372 and 1.274
- PGC1a liver mRNA [2, 8]: 1.328 and 1.046 and 1.167 and 1.184 and 1.337 and 1.083
- PGC1b liver mRNA [2, 8]: 1.159 and 2.677 and 4.191 and 3.928 and 2.638 and 2.374
- UCP2 liver mRNA [2, 8]: 0.9325 and 1.681 and 1.172 and 0.7627 and 0.8293 and 0.6383
- HFD-induced increasing of fasting blood glucose and fasting serum insulin levels [3]: decreased
- decrease in circulating adiponectin in the HFD group [3]: reverted remarkably
- competitive binding to globular adiponectin, AdipoR1 overexpression cells [4]: more JT003 cause less globular adiponectin binding

Source: PMC7669869, “AdipoR1/AdipoR2 dual agonist recovers nonalcoholic steatohepatitis and related fibrosis via endoplasmic reticulum-mitochondria axis” (Nature Communications, 2020)
